{"source": "paper PMC13198932", "about": "“Pyrazolone-based ERO1 inhibitors in ERO1-driven triple-negative breast cancer and SEPN1-related myopathy: Structure–activity relationship and therapeutic potential” (Pharmacological research, 2025)", "key": {"E0771 tumors": {"system": "E0771 tumors", "set-up": "method as in PMID 35853086, PMID 36063727, PMID 33531624, PMID 39962052", "details": "previous studies; cited from earlier work"}, "MDAMB231 cells": {"system": "MDAMB231 cells", "assay": "MTS assay of metabolic activity in MDAMB231 cells", "format": "cell-based, human", "details": "MDAMB231, dose-response, 24 h, 1 % FBS", "method": "Six thousand cells (MDAMB231 and E0771) per well were seeded in 96-well plates and cultured in medium containing 1 % FBS. Cells were treated with varying concentrations of compounds and, after 24 h, incubated with MTS [3-(4,5-dimethylthiazol-2-yl)-5-(3-carboxymethoxyphenyl)-2-(4 sulfophenyl)2Htetrazolium]and PMS (phenazine methosulfate), following the instructions of the CellTiter 96® Aqueous Non-Radioactive Cell Proliferation Assay (Promega). Measurements were performed using a TECAN Infinite M200 plate reader with […] at 490 nm."}, "recombinant ERO1A": {"target": "T1, recombinant ERO1A (Mus musculus, UniProt Q8R180)", "T1 construct": "GST-SMT3-mouse ERO1A (residues 43–464); GST-SMT3 (GST-SUMO) (N, cleaved yes); made in house; host or cells: E. coli Rosetta DE3 (Novagen)", "T1 sequence (Q8R180 43-464)": "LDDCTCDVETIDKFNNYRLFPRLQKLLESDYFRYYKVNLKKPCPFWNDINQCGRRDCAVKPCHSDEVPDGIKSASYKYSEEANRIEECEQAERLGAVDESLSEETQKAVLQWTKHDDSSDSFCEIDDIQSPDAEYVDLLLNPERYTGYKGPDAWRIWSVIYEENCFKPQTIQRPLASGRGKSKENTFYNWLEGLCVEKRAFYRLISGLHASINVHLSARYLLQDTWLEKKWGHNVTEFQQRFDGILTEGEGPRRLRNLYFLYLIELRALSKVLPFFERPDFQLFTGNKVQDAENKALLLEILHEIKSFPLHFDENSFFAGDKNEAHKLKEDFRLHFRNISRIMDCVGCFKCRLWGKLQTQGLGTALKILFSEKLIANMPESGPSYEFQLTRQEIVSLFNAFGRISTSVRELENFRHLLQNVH", "set-up": "method as in PMID 39962052", "details": "SAR of I1–I23, Fig. 8A; cited from earlier work"}, "recombinant PDI": {"target": "recombinant PDI (Homo sapiens, UniProt P07237)", "sequence (P07237 18-508, species assumed)": "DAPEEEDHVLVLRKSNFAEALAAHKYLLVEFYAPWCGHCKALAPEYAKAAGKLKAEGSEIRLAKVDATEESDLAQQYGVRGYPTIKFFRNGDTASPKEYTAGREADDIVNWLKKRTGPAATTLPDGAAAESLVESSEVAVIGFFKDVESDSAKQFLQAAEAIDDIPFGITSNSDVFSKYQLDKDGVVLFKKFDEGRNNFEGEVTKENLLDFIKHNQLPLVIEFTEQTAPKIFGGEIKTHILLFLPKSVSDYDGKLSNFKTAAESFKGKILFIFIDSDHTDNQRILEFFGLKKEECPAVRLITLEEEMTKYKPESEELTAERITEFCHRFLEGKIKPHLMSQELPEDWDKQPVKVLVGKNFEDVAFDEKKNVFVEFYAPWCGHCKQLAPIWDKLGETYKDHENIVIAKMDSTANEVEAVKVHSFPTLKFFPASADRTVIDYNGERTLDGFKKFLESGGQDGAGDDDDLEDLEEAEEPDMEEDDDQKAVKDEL", "assay": "PDI activity assay (insulin transhydrogenase / insulin turbidity assay)", "format": "biochemical", "details": "25 μM, 15 min incubation", "method": "PDI activity was assessed using an insulin transhydrogenase assay. Bovine insulin (1 mg/mL) in sodium phosphate buffer, pH 7.0, containing 2 mM EDTA, was incubated with 1.4 μM recombinant PDI in the presence of vehicle (1 % DMSO) or various concentrations of isoquercetin (30 or 60 μM), EN460, I2, I26, or I29 (1, 5, or 25 μM) for 15 min. The turbidimetric assay of insulin disulfide reduction by PDI was initiated by adding 1 mM dithiothreitol, and the reaction was monitored at 650 nm for 80 min. PDI activity is presented as a percentage of the vehicle control."}, "[1]": {"target": "T2, Human monoamine oxidase A (Mao-A) (Homo sapiens, UniProt P21397)", "T2 construct": "purchased Sigma-Aldrich", "T2 sequence (P21397 1-527)": "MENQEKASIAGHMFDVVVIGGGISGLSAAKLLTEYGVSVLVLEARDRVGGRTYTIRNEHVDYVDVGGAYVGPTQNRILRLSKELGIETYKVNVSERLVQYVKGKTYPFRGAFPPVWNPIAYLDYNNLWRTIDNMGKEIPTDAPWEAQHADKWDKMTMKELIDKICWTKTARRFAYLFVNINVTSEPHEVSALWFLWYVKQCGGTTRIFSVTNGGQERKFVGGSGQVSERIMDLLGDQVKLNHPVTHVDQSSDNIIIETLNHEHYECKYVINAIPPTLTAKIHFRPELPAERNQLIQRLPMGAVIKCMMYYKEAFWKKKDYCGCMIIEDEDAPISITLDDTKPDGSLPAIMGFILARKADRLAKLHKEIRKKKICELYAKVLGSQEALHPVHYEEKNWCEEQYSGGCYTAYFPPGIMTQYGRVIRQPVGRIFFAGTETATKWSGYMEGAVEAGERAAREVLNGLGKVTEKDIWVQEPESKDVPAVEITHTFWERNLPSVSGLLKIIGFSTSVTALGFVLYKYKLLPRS", "assay": "Mao-A activity assay (commercial kit, p-tyramine, H2O2 fluorimetry)", "format": "biochemical", "details": "25 μM, 10 min incubation", "method": "Mao-A activity was measured using a commercial assay kit according to the manufacturer’s instructions. Mao-A (0.837 μM) was incubated with vehicle (1 % DMSO), Clorgyline (50 μM), or various concentrations (1, 5, or 25 μM) of EN460, I2, I26, or I29 for 10 min. Mao-A catalyzes the oxidative deamination of p-tyramine, generating H2O2, which was quantified fluorimetrically (λex= 530; λem= 585 nm). Mao-A activity is presented as a percentage of the vehicle control."}}, "data": [{"smiles": "O=C1/C(=C/c2ccc(-c3ccccc3)o2)C(C(F)(F)F)=NN1c1ccc(Cl)cc1Cl", "note": "[I2]", "values": [{"measurement": "VEGFA levels", "setting": "E0771 tumors", "result": "reduced VEGFA levels"}, {"measurement": "metabolic activity (MTS assay)", "setting": "MDAMB231 cells", "result": "significantly reduced metabolic activity"}, {"measurement": "ERO1 inhibitory activity (in words)", "setting": "recombinant ERO1A", "result": "retained activity"}, {"measurement": "IC50", "setting": "recombinant ERO1A", "result": 8, "unit": "µM"}, {"measurement": "PDI activity (percentage of the vehicle control)", "setting": "recombinant PDI", "result": "inhibited PDI activity"}, {"measurement": "Mao-A activity (percentage of the vehicle control)", "setting": "[1]", "result": "inhibited Mao-A activity"}]}]}
